{"source": "paper PMC5777239", "about": "(Science signaling, 2017)", "key": {"RXRA [1]": {"target": "T1, RXRA (Homo sapiens, UniProt P19793)", "T1 sequence (P19793 1-462)": "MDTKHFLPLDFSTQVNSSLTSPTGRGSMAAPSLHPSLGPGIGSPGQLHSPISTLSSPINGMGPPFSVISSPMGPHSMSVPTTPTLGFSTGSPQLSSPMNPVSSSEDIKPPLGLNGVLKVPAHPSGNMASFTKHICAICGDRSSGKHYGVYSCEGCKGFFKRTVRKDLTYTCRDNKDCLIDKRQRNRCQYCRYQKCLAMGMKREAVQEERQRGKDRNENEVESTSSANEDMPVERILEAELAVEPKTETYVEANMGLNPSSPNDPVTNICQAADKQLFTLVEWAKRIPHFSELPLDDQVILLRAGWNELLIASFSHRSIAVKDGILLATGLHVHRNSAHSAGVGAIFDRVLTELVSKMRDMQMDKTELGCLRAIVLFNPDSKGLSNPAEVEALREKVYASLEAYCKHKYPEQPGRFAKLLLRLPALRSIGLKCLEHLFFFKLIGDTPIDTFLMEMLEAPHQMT", "conditions": "cited from earlier work"}, "[2]": {"system": "RXRA (Gal4-RXRA reporter)", "assay": "Gal4-RXRA UAS-GFP Kit+ reporter cells treated with plasma from treated mice", "type": "in vivo, mouse", "conditions": "Kit+ cells transduced with Gal4-RXRA, plasma from mice exposed to the agent"}, "Flag-Gal4 DBD-RXRA LBD": {"target": "T2, Flag-Gal4 DBD-RXRA LBD (Homo sapiens, UniProt P19793)", "T2 sequence (P19793 227-458 limits assumed)": "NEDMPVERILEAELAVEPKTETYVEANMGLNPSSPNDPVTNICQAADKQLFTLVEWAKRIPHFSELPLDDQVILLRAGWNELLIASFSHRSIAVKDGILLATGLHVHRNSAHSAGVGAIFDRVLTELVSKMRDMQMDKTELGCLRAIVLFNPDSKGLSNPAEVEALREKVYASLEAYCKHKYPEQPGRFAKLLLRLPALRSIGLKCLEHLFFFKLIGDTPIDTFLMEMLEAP", "type": "binding", "conditions": "293T-FXP cells treated with serum up to 24 hours"}, "RXR alpha LBD-GST [3]": {"target": "RXR alpha LBD-GST", "assay": "FRET or BRET"}, "RXR alpha LBD-GST [4]": {"target": "T3, RXR alpha LBD-GST (Homo sapiens, UniProt P19793)", "T3 sequence (P19793 227-458 limits assumed)": "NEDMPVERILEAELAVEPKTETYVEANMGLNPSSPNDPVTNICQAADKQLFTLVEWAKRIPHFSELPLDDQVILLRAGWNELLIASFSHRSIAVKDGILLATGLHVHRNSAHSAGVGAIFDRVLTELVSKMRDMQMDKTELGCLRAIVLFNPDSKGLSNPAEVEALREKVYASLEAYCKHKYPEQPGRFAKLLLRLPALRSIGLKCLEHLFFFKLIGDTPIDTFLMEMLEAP", "assay": "LanthaScreen TR-FRET Retinoic X Receptor alpha Coactivator assay", "type": "biochemical"}, "RXRA [5]": {"target": "T1, RXRA", "assay": "DR1x3-TK-Luc luciferase reporter in 293T cells with full-length RXRA", "type": "cell-based", "conditions": "40 hour incubation"}, "[6]": {"target": "T4, RXRA (Gal4-DBD fused to RXRA-LBD) (Homo sapiens, UniProt P19793)", "T4 sequence (P19793 227-458 limits assumed)": "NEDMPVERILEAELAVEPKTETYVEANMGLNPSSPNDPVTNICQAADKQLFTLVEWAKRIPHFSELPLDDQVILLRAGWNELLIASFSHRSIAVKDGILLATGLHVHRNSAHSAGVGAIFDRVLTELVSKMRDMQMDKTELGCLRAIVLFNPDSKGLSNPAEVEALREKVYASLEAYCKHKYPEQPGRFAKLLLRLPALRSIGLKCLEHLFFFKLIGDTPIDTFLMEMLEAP", "type": "cell-based, mouse", "conditions": "primary UAS-GFP Kit+ cells transduced with Gal4-RXRA; synthesized fatty acids"}, "[7]": {"system": "RXRA (Gal4-RXRA reporter)", "type": "in vivo, mouse", "conditions": "for proportion of GFP+mCherry+ cells in total bone marrow cells / single cell abundance of GFP, mean fluorescence intensity (MFI): Gal4-RXRA transplanted mice; for proportion of GFP+mCherry+ cells in total bone marrow cells: compared to mice without treatment; for single cell abundance of GFP, mean fluorescence intensity (MFI): whole bone marrow cells"}, "[8]": {"system": "mouse hematopoietic cells", "type": "in vivo", "conditions": "after PHZ treatment, mass spectrometry"}}}
{"molecule": "CCCCC/C=C\\C/C=C\\C/C=C\\C/C=C\\CCCC(=O)O", "note": "[AA, arachidonic acid]", "values": [{"measurement": "activation of RXRA in vitro (luciferase reporter)", "setting": "RXRA [1]", "result": "activate RXRA in vitro"}]}
{"molecule": "CC/C=C\\C/C=C\\C/C=C\\C/C=C\\C/C=C\\CCCCCC(=O)O", "note": "[DPA, docosapentaenoic acid]", "values": [{"measurement": "activation of RXRA in vitro (luciferase reporter)", "setting": "RXRA [1]", "result": "activate RXRA in vitro"}]}
{"molecule": "O=c1[nH]cc(F)c(=O)[nH]1", "note": "[5-FU, 5-fluoruracil]", "values": [{"measurement": "UAS-GFP reporter output with plasma from treated mice", "setting": "[2]", "result": "did not observe an increase"}]}
{"molecule": "CC/C=C\\C/C=C\\C/C=C\\C/C=C\\C/C=C\\C/C=C\\CCC(=O)O", "note": "[DHA, docosahexaenoic acid]", "values": [{"measurement": "activation of RXRA in vitro (luciferase reporter)", "setting": "RXRA [1]", "result": "activate RXRA in vitro"}, {"measurement": "binding to Flag-Gal4-RXRA in pull-down (MS)", "setting": "Flag-Gal4 DBD-RXRA LBD", "result": "bound to RXRA in a time-dependent manner"}]}
{"molecule": "Fluorescein-PGC1α peptide", "values": [{"measurement": "EC50 of the ligand C24:5 for induced binding of the peptide", "setting": "RXR alpha LBD-GST [3]", "result": 94, "unit": "nM"}, {"measurement": "EC50 of the ligand DHA for induced binding of the peptide", "setting": "RXR alpha LBD-GST [3]", "result": 86, "unit": "nM"}]}
{"molecule": "CC/C=C\\C/C=C\\C/C=C\\C/C=C\\C/C=C\\CCCCCCCC(=O)O", "note": "[C24:5, (9Z, 12Z, 15Z, 18Z, 21Z)-tetracosa-9,12,15,18,21-pentaenoic acid]", "values": [{"measurement": "binding of PGC1 and D22 co-activator peptides (TR-FRET)", "setting": "RXR alpha LBD-GST [4]", "result": "induced dose-dependent binding of both PGC1 and D22 peptides"}, {"measurement": "binding to Flag-Gal4-RXRA in pull-down (MS)", "setting": "Flag-Gal4 DBD-RXRA LBD", "result": "bound to RXRA in a time-dependent manner"}, {"measurement": "activation of DR1-luciferase reporter", "setting": "RXRA [5]", "result": "could activate a DR1-luciferase reporter"}]}
{"molecule": "CC/C=C\\C/C=C\\C/C=C\\C/C=C\\C/C=C\\CCCCCCCC(=O)O", "note": "[C24:4, (9Z, 12Z, 15Z, 18Z, 21Z)-tetracosa-9,12,15,18,21-tetraenoic acid]", "values": [{"measurement": "binding of PGC1 and D22 co-activator peptides (TR-FRET)", "setting": "RXR alpha LBD-GST [4]", "result": "did not lead to binding of either PGC1 or D22"}, {"measurement": "binding to Flag-Gal4-RXRA in pull-down (MS)", "setting": "Flag-Gal4 DBD-RXRA LBD", "result": "bound to RXRA in a time-dependent manner"}, {"measurement": "activation of the GFP reporter", "setting": "[6]", "result": "did not activate the GFP reporter"}]}
{"molecule": "NNc1ccccc1", "note": "[PHZ, phenylhydrazine]", "values": [{"measurement": "UAS-GFP reporter output with plasma from treated mice", "setting": "[2]", "result": "increased"}, {"measurement": "proportion of GFP+mCherry+ cells in total bone marrow cells", "setting": "[7]", "result": "increase"}, {"measurement": "single cell abundance of GFP, mean fluorescence intensity (MFI)", "setting": "[7]", "result": "increased"}, {"measurement": "WBC peak following treatment", "setting": "[7]; granulopoiesis following PHZ treatment", "result": "18-22,000 /μl"}, {"measurement": "concentrations of fatty acids C24:4 and C24:5 in bone marrow cells", "setting": "[8]", "result": "increased two-fold"}, {"measurement": "concentrations of fatty acids C24:4 and C24:5 in peripheral blood cells", "setting": "[8]", "result": "increased three-fold"}]}
{"molecule": "granulocyte colony stimulating factor (protein, UniProt P09919 31-207, looked up) Granulocyte …: TPLGPASSLPQSFLLKCLEQVRKIQGDGAALQEKLVSECATYKLCHPEELVLLGHSLGIPWAPLSSCPSQALQLAGCLSQLHSGLFLYQGLLQALEGISPELGPTLDTLQLDVADFATTIWQQMEELGMAPALQPTQGAMPAFASAFQRRAGGVLVASHLQSFLEVSYRVLRHLAQP", "values": [{"measurement": "UAS-GFP reporter output with plasma from treated mice", "setting": "[2]", "result": "increased"}, {"measurement": "proportion of GFP+mCherry+ cells in total bone marrow cells", "setting": "[7]", "result": "increase"}, {"measurement": "single cell abundance of GFP, mean fluorescence intensity (MFI)", "setting": "[7]", "result": "increased"}]}
